Assay results as given in patent publication US10947227B2, “Tricyclic heterocyclic compounds as sting activators” (Incyte Corporation, priority 2018, dated 2021).
pEC50: −log10 of the molar value.

Tested on: IRF3 activation in THP-1 Dual Cells
Test: IRF3 activation assay in THP-1 Dual Cells (QUANTI-Blue readout)
Format: cell-based
Details: Homo sapiens, THP1-Dual, 24 h
Protocol: THP-1 Dual Cells (Invivogen) were maintained in RPMI1640 medium with addition of 10% FBS, 100 μg/ml zeocin, 10 μg/ml blasticidin. Cells were added in a 96-well flat bottom assay plate at 100,000 per well in 100 μL complete RPMI medium. Test compounds were prepared by serial dilution in complete RPMI medium and 100 μL test compounds were transferred to each corresponding well. The assay plate was incubated at 37° C., 5% CO2 for 24 hours. After the overnight incubation, 20 μL of the culture supernatants were collected, followed by addition of 180 μL of QUANTI-Blue (Invivogen) to assess IRF3 activity. The amount of IRF3 activation was assessed by reading the absorbance at 620-655 nm with a microplate reader 2 hours later. The culture supernatant from the untreated THP-1 cells was used as the negative control. To determine the NF-κB activation, another 20 μL of culture supernatant were transferred to a 96-well white plate, followed by addition of 50 μL of Quanti-Luc™ assay solution (Invivogen). The amount of NF-κB activation induced by the test compounds were determined by the luminescence above the untreated control. EC50 determination was performed by fitting the curve of percent control activity versus the log of the compound concentration using the GraphPad Prism 6.0 software.

`CCn1nc(C)cc1C(=O)Nc1nc2cc(C(N)=O)cc(OCCCO)c2n1C/C=C/Cn1c2ccc(C(N)=O)cc2c2cnc(-c3cc(C)nn3CC)nc21` [Example 18, (E)-9-(4-(5-carbamoyl-2-(1-ethyl-3-methyl-1H-pyrazole-5-carboxamido)-7-(3-hydroxypropoxy)-1H-benzo[d]imidazol-1-yl)but-2-en-1-yl)-2-(1-ethyl-3-methyl-1H-pyrazol-5-yl)-9H-pyrimido[4,5-b]indole-6-carboxamide] was tested, and the pEC50 (Table 1, 24 hours incubation) was > 6.70 and the pEC50 (Table 2, 24 hours incubation) was > 7.30.
With `CCn1nc(C)cc1C(=O)Nc1nc2cc(C(N)=O)cc(OCCCOC(=O)c3cc(C)nn3CC)c2n1C/C=C/Cn1c2nc(-c3cc(C)nn3CC)ncc2c2cc(C(N)=O)cc(OCCCOC)c21` [Example 21, (E)-3-((5-carbamoyl-1-(4-(6-carbamoyl-2-(1-ethyl-3-methyl-1H-pyrazol-5-yl)-8-(3-methoxypropoxy)-9H-pyrimido[4,5-b]indol-9-yl)but-2-en-1-yl)-2-(1-ethyl-3-methyl-1H-pyrazole-5-carboxamido)-1H-benzo[d]imidazol-7-yl)oxy)propyl 1-ethyl-3-methyl-1H-pyrazole-5-carboxylate] the pEC50 (Table 1, 24 hours incubation) was > 6.70 and the pEC50 (Table 2, 24 hours incubation) was > 7.30.
With `CCn1nc(C)cc1C(=O)Nc1nc2cc(C(N)=O)cc(C)c2n1C/C=C/Cn1c2nc(-c3cc(C)nn3CC)ncc2c2cc(C(N)=O)cc(OCCCO)c21` [Example 13, (E)-9-(4-(5-carbamoyl-2-(1-ethyl-3-methyl-1H-pyrazole-5-carboxamido)-7-methyl-1H-benzo[d]imidazol-1-yl)but-2-enyl)-2-(1-ethyl-3-methyl-1H-pyrazol-5-yl)-8-(3-hydroxypropoxy)-9H-pyrimido[4,5-b]indole-6-carboxamide] the pEC50 (Table 1, 24 hours incubation) was > 6.70 and the pEC50 (Table 2, 24 hours incubation) was > 7.30.
In the case of `CCn1nc(C)cc1C(=O)Nc1nc2cc(C(N)=O)cc(OC)c2n1C/C=C/Cn1c2nc(-c3cc(C)nn3CC)ncc2c2cc(C(N)=O)cc(OCCCNC(=O)OCCC(=O)O)c21` [Example 47, (E)-3-(3-(6-carbamoyl-9-(4-(5-carbamoyl-2-(1-ethyl-3-methyl-1H-pyrazole-5-carboxamido)-7-methoxy-1H-benzo[d]imidazol-1-yl)but-2-enyl)-2-(1-ethyl-3-methyl-1H-pyrazol-5-yl)-9H-pyrimido[4,5-b]indol-8-yloxy)propylcarbamoyloxy)propanoic Acid], the pEC50 (Table 2, 24 hours incubation) was > 7.30.
`CCn1nc(C)cc1C(=O)Nc1nc2cc(C(N)=O)cc(C)c2n1C/C=C/Cn1c2ccccc2c2cnc(-c3cc(C)nn3CC)nc21` [Example 2, (E)-1-(4-(2-(1-ethyl-3-methyl-1H-pyrazol-5-yl)-9H-pyrimido[4,5-b]indol-9-yl)but-2-enyl)-2-(1-ethyl-3-methyl-1H-pyrazole-5-carboxamido)-7-methyl-1H-benzo[d]imidazole-5-carboxamide] was tested, and the pEC50 (Table 1, 24 hours incubation) was > 6.00 and the pEC50 (Table 2, 24 hours incubation) was 6.30 to 6.70.
For `CCn1nc(C)cc1C(=O)Nc1nc2cc(C(N)=O)cc(C)c2n1C/C=C/Cn1c2ccc(C(N)=O)cc2c2cnc(-c3cc(C)nn3C)nc21` [Example 3, (E)-9-(4-(5-carbamoyl-2-(1-ethyl-3-methyl-1H-pyrazole-5-carboxamido)-7-methyl-1H-benzo[d]imidazol-1-yl)but-2-enyl)-2-(1,3-dimethyl-1H-pyrazol-5-yl)-9H-pyrimido[4,5-b]indole-6-carboxamide], the pEC50 (Table 1, 24 hours incubation) was > 6.00.
`CCn1nc(C)cc1C(=O)Nc1nc2cc(C(N)=O)cc(OCCCOC(=O)NCCC(=O)O)c2n1C/C=C/Cn1c2nc(-c3cc(C)nn3CC)ncc2c2cc(C(N)=O)cc(OCCOCCOCCC(=O)O)c21` [Example 58, (E)-3-(((3-((5-carbamoyl-1-(4-(6-carbamoyl-8-(2-(2-(2-carboxyethoxy)ethoxy)ethoxy)-2-(1-ethyl-3-methyl-1H-pyrazol-5-yl)-9H-pyrimido[4,5-b]indol-9-yl)but-2-en-1-yl)-2-(1-ethyl-3-methyl-1H-pyrazole-5-carboxamido)-1H-benzo[d]imidazol-7-yl)oxy)propoxy)carbonyl)amino)propanoic Acid] gave a pEC50 (Table 2, 24 hours incubation) of 6.30 to 6.70.
For `CCn1nc(C)cc1C(=O)Nc1nc2cc(C(N)=O)cc(OCCCO)c2n1C/C=C/Cn1c2nc(-c3cc(C)nn3CC)ncc2c2cc(C(N)=O)cc(OCCCN3CCOCC3)c21` [Example 20, (E)-9-(4-(5-carbamoyl-2-(1-ethyl-3-methyl-1H-pyrazole-5-carboxamido)-7-(3-hydroxypropoxy)-1H-benzo[d]imidazol-1-yl)but-2-en-1-yl)-2-(1-ethyl-3-methyl-1H-pyrazol-5-yl)-8-(3-morpholinopropoxy)-9H-pyrimido[4,5-b]indole-6-arboxamide], the pEC50 (Table 1, 24 hours incubation) was > 6.70 and the pEC50 (Table 2, 24 hours incubation) was > 7.30.
`CCn1nc(C)cc1C(=O)Nc1nc2cc(C(N)=O)cc(OCCCO)c2n1C/C=C/Cn1c2nc(-c3cc(C)nn3CC)ncc2c2cc(C(N)=O)cc(OCCCNC(=O)CCCC(=O)O)c21` [Example 48, (E)-5-(3-(6-carbamoyl-9-(4-(5-carbamoyl-2-(1-ethyl-3-methyl-1H-pyrazole-5-carboxamido)-7-(3-hydroxypropoxy)-1H-benzo[d]imidazol-1-yl)but-2-enyl)-2-(1-ethyl-3-methyl-1H-pyrazol-5-yl)-9H-pyrimido[4,5-b]indol-8-yloxy)propylamino)-5-oxopentanoic Acid] was tested, and the pEC50 (Table 2, 24 hours incubation) was > 7.30.
With `CCn1nc(C)cc1C(=O)Nc1nc2cc(C(N)=O)cc(OCCCOC)c2n1C/C=C/Cn1c2nc(-c3cc(C)nn3CC)ncc2c2cc(C(N)=O)cc(OCCCNC(=O)CCCC(=O)O)c21` [Example 50, (E)-5-(3-(6-carbamoyl-9-(4-(5-carbamoyl-2-(1-ethyl-3-methyl-1H-pyrazole-5-carboxamido)-7-(3-methoxypropoxy)-1H-benzo[d]imidazol-1-yl)but-2-enyl)-2-(1-ethyl-3-methyl-1H-pyrazol-5-yl)-9H-pyrimido[4,5-b]indol-8-yloxy)propylamino)-5-oxopentanoic Acid] the pEC50 (Table 2, 24 hours incubation) was > 7.30.
`CCn1nc(C)cc1C(=O)Nc1nc2cc(C(N)=O)cc(OCCCOC)c2n1C/C=C/Cn1c2nc(-c3cc(C)nn3CC)ncc2c2cc(C(N)=O)cc(OCCCOC(=O)NCCC(=O)O)c21` [Example 52, (E)-3-((3-(6-carbamoyl-9-(4-(5-carbamoyl-2-(1-ethyl-3-methyl-1H-pyrazole-5-carboxamido)-7-(3-methoxypropoxy)-1H-benzo[d]imidazol-1-yl)but-2-enyl)-2-(1-ethyl-3-methyl-1H-pyrazol-5-yl)-9H-pyrimido[4,5-b]indol-8-yloxy)propoxy)carbonylamino)propanoic Acid] was tested, and the pEC50 (Table 2, 24 hours incubation) was 6.70 to 7.30.
For `CCn1nc(C)cc1C(=O)Nc1nc2cc(C(N)=O)cc(OCCCNC(=O)OCCC(=O)O)c2n1C/C=C/Cn1c2nc(-c3cc(C)nn3CC)ncc2c2cc(C(N)=O)cc(OCCCOC)c21` [Example 39, (E)-3-(((3-((5-carbamoyl-1-(4-(6-carbamoyl-2-(1-ethyl-3-methyl-1H-pyrazol-5-yl)-8-(3-methoxypropoxy)-9H-pyrimido[4,5-b]indol-9-yl)but-2-en-1-yl)-2-(1-ethyl-3-methyl-1H-pyrazole-5-carboxamido)-1H-benzo[d]imidazol-7-yl)oxy)propyl)carbamoyl)oxy)propanoic Acid], the pEC50 (Table 2, 24 hours incubation) was > 7.30.
For `CCn1nc(C)cc1C(=O)Nc1nc2cc(C(N)=O)cc(C)c2n1C/C=C/Cn1c2nc(-c3cc(C)nn3CC)ncc2c2cc(C(N)=O)cc(OCCCN3CCOCC3)c21` [Example 11, (E)-9-(4-(5-carbamoyl-2-(1-ethyl-3-methyl-1H-pyrazole-5-carboxamido)-7-methyl-1H-benzo[d]imidazol-1-yl)but-2-enyl)-2-(1-ethyl-3-methyl-1H-pyrazol-5-yl)-8-(3-morpholinopropoxy)-9H-pyrimido[4,5-b]indole-6-carboxamide], the pEC50 (Table 1, 24 hours incubation) was > 6.70 and the pEC50 (Table 2, 24 hours incubation) was > 7.30.
`CCc1nn(C)cc1-c1ncc2c3cc(C(N)=O)ccc3n(C/C=C/Cn3c(NC(=O)c4cc(C)nn4CC)nc4cc(C(N)=O)cc(C)c43)c2n1` [Example 8, (E)-9-(4-(5-carbamoyl-2-(1-ethyl-3-methyl-1H-pyrazole-5-carboxamido)-7-methyl-1H-benzo[d]imidazol-1-yl)but-2-enyl)-2-(3-ethyl-1-methyl-1H-pyrazol-4-yl)-9H-pyrimido[4,5-b]indole-6-carboxamide] was tested, and the pEC50 (Table 1, 24 hours incubation) was > 6.00 and the pEC50 (Table 2, 24 hours incubation) was 6.00 to 6.30.
`CCn1nc(C)cc1C(=O)Nc1nc2cc(C(N)=O)cc(OCCOCCOCCC(=O)O)c2n1C/C=C/Cn1c2nc(-c3cc(C)nn3CC)ncc2c2cc(C(N)=O)cc(OCCCOC)c21` [Example 44, (E)-3-(2-(2-((5-carbamoyl-1-(4-(6-carbamoyl-2-(1-ethyl-3-methyl-1H-pyrazol-5-yl)-8-(3-methoxypropoxy)-9H-pyrimido[4,5-b]indol-9-yl)but-2-en-1-yl)-2-(1-ethyl-3-methyl-1H-pyrazole-5-carboxamido)-1H-benzo[d]imidazol-7-yl)oxy)ethoxy)ethoxy)propanoic Acid] was tested, and the pEC50 (Table 2, 24 hours incubation) was > 7.30.
With `CCn1nc(C)cc1C(=O)Nc1nc2cc(C(N)=O)cc(OCCCNS(=O)(=O)CCCC(=O)O)c2n1C/C=C/Cn1c2nc(-c3cc(C)nn3CC)ncc2c2cc(C(N)=O)cc(OCCCOC)c21` [Example 45, (E)-4-(N-(3-((5-carbamoyl-1-(4-(6-carbamoyl-2-(1-ethyl-3-methyl-1H-pyrazol-5-yl)-8-(3-methoxypropoxy)-9H-pyrimido[4,5-b]indol-9-yl)but-2-en-1-yl)-2-(1-ethyl-3-methyl-1H-pyrazole-5-carboxamido)-1H-benzo[d]imidazol-7-yl)oxy)propyl)sulfamoyl)butanoic Acid] the pEC50 (Table 2, 24 hours incubation) was > 7.30.
